Test results as given in patent publication US20040086553A1, “Foods and beverages for whitening and orally administered whitening agents” (The Nisshin OilliO, Ltd., priority 2000, published 2004).
Where two headings read alike, the source gives them in different places.

Key:
B-16 melanoma cells = assay: Evaluation of melanin production-inhibitory function (degree of whiteness of cultured cells); format: cell-based; as to Evaluation of Melanin Production-Inhibition (degree of whiteness of cells): key: ++: The degree of whiteness is higher than that observed for the positive control; +: The degree of whiteness is almost identical to that of the positive control; ±: The degree of whiteness is not higher than that observed for the positive control, but higher than that observed for control; −: The degree of whiteness is almost identical to that observed for the control
From the text: The melanin production-inhibitory function of the 5-membered ring-containing triterpenes incorporated into the foods or beverages and orally administered whitening agents of the present invention can be determined by a test method, which makes use of cultured melanocytes. The term “melanocyte(s)” used herein means cells having an ability of producing melanin and when cultivating these cells in the usual manner, the cells are blackened due to the accumulation of melanin pigment thus produced. Contrary to this, if a substance having such a melanin production-inhibitory function is incorporated into this cultivation system, the melanin production is suppressed and the skin is relatively whitened. The melanin production-inhibitory function can likewise be evaluated on the basis of this degree of relative whitening.
A culture medium (2 mL/well) was dispensed to a 6-well plate, a predetermined amount of B-16 melanoma cells was inoculated into the culture medium in each well and the cells were cultured at 37° C. and 5% CO2 by allowing the culture medium to stand. On the next day, a solution of test sample (each 5-membered ring-containing triterpene to be evaluated) having a predetermined concentration was added to and mixed with the culture medium and the cultivation was continued. On the 5th day from the initiation of the cultivation, the culture medium was exchanged and the test sample solution was again added to each well. On the next day, the culture medium was removed from each well to thus recover the cells, followed by washing the cells with PBS (phosphate-buffered physiological saline) and evaluation of the desired function based on the degree of whiteness of the cells. In this connection, the melanin production-inhibitory effect was evaluated by comparing the resulting degree of whiteness with that observed when 450 ppm of vitamin C-magnesium phosphate having a known effect was added instead of the test sample solution (positive control) and that observed when any test sample was not added (control) according to the following criteria.
The evaluation criteria for the degree of whiteness of cells are as follows: […]

[1] = tested on: deposition of melanin pigment on the skin induced by the UV light irradiation; assay: Animal test for the confirmation of whitening effect (UV-induced skin pigmentation, test feed); format: in vivo, Brown guinea pigs; conditions: free ingestion, 4 weeks; for Evaluation Results CI: number of 7 animals ranked Conspicuous Imp.; for Evaluation Results MI: number of 7 animals ranked Medium Imp.; for Evaluation Results NC: number of 7 animals ranked No Change; for Evaluation Results SI: number of 7 animals ranked Slight Imp.
From the text: More specifically, the whitening effect can be evaluated by removing a half of the hair on the back of each brown guinea pig, keeping these animals over 2 weeks while irradiating the hair-removed area with a UV lamp, dividing these guinea pigs into groups in such a manner that there is not any difference in the degree of the melanin pigmentation induced by the UN light irradiation, allowing the animals in each group to freely take a test food comprising a feed having a low vitamin C content to which a variety of triterpenes have been added and keeping these animals over additional 4 weeks to evaluate the degree of skin pigmentation while comparing the same with those observed for a control group and for a positive control group.
Brown guinea pigs (5-week-old male animals) were preliminarily kept for one week using a commercially available feed (CG-7 available from Nippon Kurea Company), a half of the hair on the back was removed and the hair-removed portion on the back was irradiated with light rays emitted from a UV lamp of 1.2 mW for 5 minutes on the 1st day and then with light rays emitted from a UV lamp of 1.0 mW for 5 minutes on the 2nd and 3rd days. Subsequently, these animals were kept over 2 weeks using a feed having a low vitamin C content (200.0 mg/kg feed), these guinea pigs were divided into 12 groups (comprising 7 animals each) in such a manner that there was not observed any difference in the degree of deposition of melanin pigment on the skin induced by the UV light irradiation between groups and then the animals were allowed to freely ingest each test feed comprising the feed having a low vitamin C content to which each triterpene had been added in an amount specified in the following Table 2. In this respect, however, the vitamin C-deficient feed per se was supplied to the control group and a vitamin C-supplemented feed was supplied to the positive control group. After 4 weeks from the supply of the test feed, the degree of the pigmentation of the skin was evaluated according to the following criteria.

[2] = Concentration 2 ppm, rank vs 450 ppm vitamin C-magnesium phosphate
[3] = Concentration 6 ppm, rank vs 450 ppm vitamin C-magnesium phosphate
[4] = Concentration 10 ppm, rank vs 450 ppm vitamin C-magnesium phosphate
[5] = compared with 450 ppm of vitamin C-magnesium phosphate
[6] = Concentration 4 ppm, rank vs 450 ppm vitamin C-magnesium phosphate
[7] = Concentration 8 ppm, rank vs 450 ppm vitamin C-magnesium phosphate

SMILES: C=C(C)[C@@H]1CC[C@]2(C(=O)O)CC[C@]3(C)[C@H](CC[C@@H]4[C@@]5(C)CC[C@H](O)C(C)(C)[C@@H]5CC[C@]43C)[C@@H]12 [Betulinic acid]
- Evaluation of Melanin Production-Inhibition (degree of whiteness of cells) (B-16 melanoma cells; [2]): −
- Evaluation of Melanin Production-Inhibition (degree of whiteness of cells) (B-16 melanoma cells; [3]): ±
- Evaluation of Melanin Production-Inhibition (degree of whiteness of cells) (B-16 melanoma cells; [4]): +
- melanin production-inhibitory function relative to that observed for the positive control/standard (B-16 melanoma cells; [5]): about 20 times
- Evaluation Results CI ([1]; 500.0 mg/kg feed): 2
- Evaluation Results MI ([1]; 500.0 mg/kg feed): 4
- Evaluation Results NC ([1]; 500.0 mg/kg feed): 0
- Evaluation Results SI ([1]; 500.0 mg/kg feed): 1

SMILES: CCOC(=O)[C@]12CCC(C)(C)C[C@H]1C1=CC[C@@H]3[C@@]4(C)C[C@@H](O)[C@H](O)C(C)(C)[C@@H]4CC[C@@]3(C)[C@]1(C)CC2 [Compound of Synthetic Example 1, Ethyl Maslinate]
- Evaluation of Melanin Production-Inhibition (degree of whiteness of cells) (B-16 melanoma cells; [2]): ±
- Evaluation of Melanin Production-Inhibition (degree of whiteness of cells) (B-16 melanoma cells; [6]): +
- Evaluation of Melanin Production-Inhibition (degree of whiteness of cells) (B-16 melanoma cells; [3]): ++
- Evaluation of Melanin Production-Inhibition (degree of whiteness of cells) (B-16 melanoma cells; [7]): ++
- Evaluation of Melanin Production-Inhibition (degree of whiteness of cells) (B-16 melanoma cells; [4]): ++
- melanin production-inhibitory function relative to that observed for the positive control/standard (B-16 melanoma cells; [5]): about 110 times
- Evaluation Results CI ([1]; 500.0 mg/kg feed): 2
- Evaluation Results MI ([1]; 500.0 mg/kg feed): 3
- Evaluation Results NC ([1]; 500.0 mg/kg feed): 1
- Evaluation Results SI ([1]; 500.0 mg/kg feed): 1

SMILES: CC(=O)O[C@@H]1C[C@]2(C)[C@H]3CC=C4[C@@H]5CC(C)(C)CC[C@]5(C(=O)O)CC[C@@]4(C)[C@]3(C)CC[C@H]2C(C)(C)[C@H]1OC(C)=O [Compound of Synthetic Example 2, 2,3-O-di-Acetyl-Maslinic Acid]
- Evaluation of Melanin Production-Inhibition (degree of whiteness of cells) (B-16 melanoma cells; [2]): ±
- Evaluation of Melanin Production-Inhibition (degree of whiteness of cells) (B-16 melanoma cells; [6]): ±
- Evaluation of Melanin Production-Inhibition (degree of whiteness of cells) (B-16 melanoma cells; [3]): +
- Evaluation of Melanin Production-Inhibition (degree of whiteness of cells) (B-16 melanoma cells; [7]): ++
- Evaluation of Melanin Production-Inhibition (degree of whiteness of cells) (B-16 melanoma cells; [4]): ++
- Evaluation of Melanin Production-Inhibition (degree of whiteness of cells) (B-16 melanoma cells; Concentration 15 ppm, rank vs 450 ppm vitamin C-magnesium phosphate): ++
- melanin production-inhibitory function relative to that observed for the positive control/standard (B-16 melanoma cells; [5]): about 75 times
- Evaluation Results CI ([1]; 500.0 mg/kg feed): 2
- Evaluation Results MI ([1]; 500.0 mg/kg feed): 4
- Evaluation Results NC ([1]; 500.0 mg/kg feed): 0
- Evaluation Results SI ([1]; 500.0 mg/kg feed): 1

SMILES: CC1(C)CC[C@]2(CO)CC[C@]3(C)C(=CC[C@@H]4[C@@]5(C)CC[C@H](O)C(C)(C)[C@@H]5CC[C@]43C)[C@@H]2C1 [Erythrodiol]
- Evaluation of Melanin Production-Inhibition (degree of whiteness of cells) (B-16 melanoma cells; [2]): ±
- Evaluation of Melanin Production-Inhibition (degree of whiteness of cells) (B-16 melanoma cells; [3]): ±
- Evaluation of Melanin Production-Inhibition (degree of whiteness of cells) (B-16 melanoma cells; [4]): ±
- Evaluation of Melanin Production-Inhibition (degree of whiteness of cells) (B-16 melanoma cells; Concentration 25 ppm, rank vs 450 ppm vitamin C-magnesium phosphate): +
- Evaluation of Melanin Production-Inhibition (degree of whiteness of cells) (B-16 melanoma cells; Concentration 50 ppm, rank vs 450 ppm vitamin C-magnesium phosphate): +
- melanin production-inhibitory function relative to that observed for the positive control/standard (B-16 melanoma cells; [5]): about 20 times
- Evaluation Results CI ([1]; 500.0 mg/kg feed): 2
- Evaluation Results MI ([1]; 500.0 mg/kg feed): 2
- Evaluation Results NC ([1]; 500.0 mg/kg feed): 1
- Evaluation Results SI ([1]; 500.0 mg/kg feed): 2

SMILES: CC1(C)CC[C@]2(C(=O)O)CC[C@]3(C)C(=CC[C@@H]4[C@@]5(C)C[C@@H](O)[C@H](O)C(C)(C)[C@@H]5CC[C@]43C)[C@@H]2C1 [Purified maslinic acid 1, maslinic acid]
- Evaluation of Melanin Production-Inhibition (degree of whiteness of cells) (B-16 melanoma cells): ± and + and ++
- concentration at which the function is identical to that observed for 450 ppm of the positive control (B-16 melanoma cells): 4 ppm
- melanin production-inhibitory function relative to that observed for the positive control/standard (B-16 melanoma cells): about 110 times
- Evaluation Results CI ([1]; 250.0 mg/kg feed): 2
- Evaluation Results CI ([1]; 500.0 mg/kg feed, 500 mg/kg): 4
- Evaluation Results MI ([1]; 250.0 mg/kg feed): 3
- Evaluation Results MI ([1]; 500.0 mg/kg feed): 3
- Evaluation Results NC ([1]; 250.0 mg/kg feed): 0
- Evaluation Results NC ([1]; 500.0 mg/kg feed): 0
- Evaluation Results SI ([1]; 250.0 mg/kg feed): 2
- Evaluation Results SI ([1]; 500.0 mg/kg feed, 500 mg/kg): 0

SMILES: CC1(C)CC[C@]2(C(=O)O)CC[C@]3(C)C(=CC[C@@H]4[C@@]5(C)C[C@@H](O)[C@H](O)C(C)(C)[C@@H]5CC[C@]43C)[C@@H]2C1 [Purified maslinic acid 2, maslinic acid]
- Evaluation of Melanin Production-Inhibition (degree of whiteness of cells) (B-16 melanoma cells): ± and + and ++
- melanin production-inhibitory function relative to that observed for the positive control/standard (B-16 melanoma cells): about 110 times
- Evaluation Results CI ([1]; 500.0 mg/kg feed, 500 mg/kg): 3
- Evaluation Results MI ([1]; 500.0 mg/kg feed): 3
- Evaluation Results NC ([1]; 500.0 mg/kg feed): 0
- Evaluation Results SI ([1]; 500.0 mg/kg feed, 500 mg/kg): 1

SMILES: C[C@H]1[C@H](C)CC[C@]2(C(=O)O)CC[C@]3(C)C(=CC[C@@H]4[C@@]5(C)CC[C@H](O)C(C)(C)[C@@H]5CC[C@]43C)[C@H]12 [Ursolic acid]
- Evaluation of Melanin Production-Inhibition (degree of whiteness of cells) (B-16 melanoma cells; [2]): ±
- Evaluation of Melanin Production-Inhibition (degree of whiteness of cells) (B-16 melanoma cells; [6]): +
- Evaluation of Melanin Production-Inhibition (degree of whiteness of cells) (B-16 melanoma cells; [3]): ++
- Evaluation of Melanin Production-Inhibition (degree of whiteness of cells) (B-16 melanoma cells; [7]): ++
- Evaluation of Melanin Production-Inhibition (degree of whiteness of cells) (B-16 melanoma cells; [4]): ++
- melanin production-inhibitory function relative to that observed for the positive control/standard (B-16 melanoma cells; [5]): about 110 times
- Evaluation Results CI ([1]; 500.0 mg/kg feed): 4
- Evaluation Results MI ([1]; 500.0 mg/kg feed): 2
- Evaluation Results NC ([1]; 500.0 mg/kg feed): 0
- Evaluation Results SI ([1]; 500.0 mg/kg feed): 1

SMILES: C[C@H]1[C@H](C)CC[C@]2(CO)CC[C@]3(C)C(=CC[C@@H]4[C@@]5(C)CC[C@H](O)C(C)(C)[C@@H]5CC[C@]43C)[C@H]12 [Uvaol]
- Evaluation of Melanin Production-Inhibition (degree of whiteness of cells) (B-16 melanoma cells; [2]): −
- Evaluation of Melanin Production-Inhibition (degree of whiteness of cells) (B-16 melanoma cells; [3]): −
- Evaluation of Melanin Production-Inhibition (degree of whiteness of cells) (B-16 melanoma cells; [4]): +
- melanin production-inhibitory function relative to that observed for the positive control/standard (B-16 melanoma cells; [5]): about 40 times
- Evaluation Results CI ([1]; 500.0 mg/kg feed): 1
- Evaluation Results MI ([1]; 500.0 mg/kg feed): 4
- Evaluation Results NC ([1]; 500.0 mg/kg feed): 1
- Evaluation Results SI ([1]; 500.0 mg/kg feed): 1
